The target in test [1] is Prolactin-releasing peptide receptor PRLHR (Homo sapiens) (UniProt P49683). Put plainly: Displacement of [3H]-PrRP-20 from human PrRP receptor expressed in CHO cells by TopCount scintillation counting method.
In a further test the target is KiSS-1 receptor (Homo sapiens, UniProt Q969F8). The experiment in a line: Displacement of [125I]-Kp-10 from human Kiss1 receptor by TopCount scintillation counting method. A general note: Displacement assays read how much labelled ligand stays bound in the presence of the test substance.

Bounds are passed on as bounds.

Prolactin-releasing peptide receptor PRLHR (Homo sapiens), sequence (P49683 whole entry, looked up): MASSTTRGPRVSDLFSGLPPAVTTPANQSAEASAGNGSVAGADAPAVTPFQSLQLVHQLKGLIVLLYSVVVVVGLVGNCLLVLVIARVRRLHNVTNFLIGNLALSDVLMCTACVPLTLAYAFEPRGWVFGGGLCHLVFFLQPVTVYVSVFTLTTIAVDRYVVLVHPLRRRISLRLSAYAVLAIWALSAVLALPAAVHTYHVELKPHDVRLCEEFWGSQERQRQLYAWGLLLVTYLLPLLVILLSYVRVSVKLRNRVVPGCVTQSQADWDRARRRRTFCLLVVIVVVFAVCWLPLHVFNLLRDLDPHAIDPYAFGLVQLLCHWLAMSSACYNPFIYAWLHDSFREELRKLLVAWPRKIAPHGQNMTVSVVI
KiSS-1 receptor, sequence (Q969F8 whole entry): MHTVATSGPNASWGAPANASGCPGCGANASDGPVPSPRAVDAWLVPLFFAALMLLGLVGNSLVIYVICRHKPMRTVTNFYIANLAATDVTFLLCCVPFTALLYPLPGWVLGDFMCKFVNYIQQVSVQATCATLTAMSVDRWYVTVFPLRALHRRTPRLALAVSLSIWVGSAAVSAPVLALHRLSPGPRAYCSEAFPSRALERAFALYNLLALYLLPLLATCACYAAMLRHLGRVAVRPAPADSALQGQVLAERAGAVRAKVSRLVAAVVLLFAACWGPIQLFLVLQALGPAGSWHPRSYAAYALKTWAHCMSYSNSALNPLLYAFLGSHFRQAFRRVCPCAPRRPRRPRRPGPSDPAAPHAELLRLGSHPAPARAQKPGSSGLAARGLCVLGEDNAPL

With `N=C(N)NCCC[C@@H](NC(=O)C=C(c1ccccc1)c1ccccc1)C(=O)N[C@H](Cc1ccccc1)C(N)=O`, the Ki in test [1] was above 50000 nM. `CC(C)C[C@H](NC(=O)CNC(=O)[C@H](Cc1ccccc1)NC(=O)[C@H](CO)NC(=O)[C@H](CC(N)=O)NC(=O)[C@H](Cc1c[nH]c2ccccc12)NC(=O)[C@H](CC(N)=O)NC(=O)[C@@H](N)Cc1ccc(O)cc1)C(=O)N[C@@H](CCCNC(=N)N)C(=O)N[C@@H](Cc1ccccc1)C(N)=O` [Kisspeptin-10] showed a Ki at KiSS-1 receptor of 0.062 nM. H-TPDINPAWYASRGIRPVGRF-NH2 came in with a Ki in test [1] of 2.1 nM.

The term Ki denotes the dissociation constant of the complex between target and ligand, obtained from inhibition or displacement. A high value points to weaker binding.

The record behind these values is BindingDB's records for doi:10.1021/acs.jmedchem.1c00256 (University of Strasbourg, 2021).
